One experiment deals with OVCA 432. Description: MTT assay OVCA 432. Format: cell-based. The conditions noted are these: Homo sapiens, OVCA432; OVCA 432, Serous. The method, then:
(§1) Majority of ovarian cancers arise from the surface epithelium of ovary, most of them belong to the histological subtypes of clear cell and serous carcinoma. We obtained 10 more human ovarian carcinoma cell-lines of these histological subtypes for these studies. The inhibition activity exerted by Xanifolia-Y was determined with MTT assay.
In general terms: Tetrazolium assays rely on reduction of a dye to a coloured formazan, in cell work by metabolically active cells.

Experiment [1] deals with (bladder)TB9 cells / HTB-9. Description: MTT assay bladder cells. Format: cell-based, human. The method, then:
(§2) Cells. Human cancer cell lines were obtained from American Type Culture Collection: HTB-9 (bladder), HeLa-S3 (cervix), DU145 (prostate), H460 (lung), MCF-7 (breast), K562 (leukocytes), HCT116 (colon), HepG2 (liver), U2OS (bone), T98G (brain), SK-MEL-5 (Skin) and OVCAR-3 (ovary). The cells were grown in following culture media: HeLa-53, DU145, MCF-7, Hep-G2 and T98G are in MEN (Earle's salts); HTB-9, H460, K562 and OVCAR-3 in RPMI-1640; HCT-116 and U2OS in McCoy-5A. They are supplemented with 10% fetal calf serum, glutamine and antibiotics, and incubated in an incubator with 5% CO2 humidified at 37° C.
MTT Assay. The procedure for MTT assay followed the method described by Carmichael et al. (1987) with modifications. The cells were seeded into a 96-well plate at concentration of 10,000/well for HTB-9, HeLa, H460, HCT116, T98G and OVCAR-3), 15,000/well for DU145, MCF-7, HepG2 and U2OS), and 40,000/well for K562 for 24 hours before drug-treatment. The cells were then exposed to the drugs for 48 hours (72 hours for HepG2 and U2OS, and 96 hours for MCF-7). After the drug-treatment, MTT (0.5 mg/mL) was added to cultures and incubated for an hour. The formazan (product of the reduction of tetrazolium by viable cells) formed and was dissolved with DMSO and the O.D. at 490 nm, and was measured by an ELISA reader. The MTT level of the cells before drug-treatment was also measured (T0). The % cell-growth (% G) is calculated as: % G=(TD−T0/TC−T0)×100(1), where TC or TD represents O.D. readings of control or drug-treated cells. When T0>TD, then the cytotoxicity (LC) expressed as % of the control is calculated as: % LC=(TD−T0/T0)×100(2).

For experiment [2], the system named is Angiopoietin 2 (Ang2) in ES2 cells. The experiment is described as follows: Angiopoietin-2 cellular content (Western blot). The note with it: low concentration (5, 10 ug/ml), 24 hours. Format: cell-based, human. Here is the method: Methods: ES2 (human ovarian carcinoma cells) were grew in RPMI 1640 medium. 4.5 million cells were seeded in a T75 flask and grown for 24 hours before drug-treatment.
Drug-treatment: Cells cultures were treated with 5, 10 and 15 ug/ml (final concentration) of Xanifolia-Y3 [Y3-5, Y3-10, Y3-15]. or DMSO control [D-10]. After 24 hours, cells were suspended in 1 ml of SDS sample buffer (cell-extract). Samples (80 ul/lane) were applied to 10% SDS gel and electrophoresis was conducted with 100 volts for 2 hours. Protein was transferred to a nitrocellulose membrane electrophoretically. The nitrocellulose blot was blocked with 5% non-fat dry milk in PBS. The blot was then incubated with the first antibodies (goat anti-Ang2, SIGMA A0851) and second antibody (donkey anti-goat AP conjugated, Promega V115A). The immuno-bands were developed with BCIP/NBT color development system (Promega S3771).
Drug-treatment: Cells cultures were treated with 5, 10 and 15 ug/ml (final concentration) of Xanifolia-Y3 [Y3-5, Y3-10, Y3-15]. or DMSO control [D-10]. After 24 hours, cells were suspended in 1 ml of SDS sample buffer (cell-extract). Samples (80 ul/lane) were applied to a 10% SDS gel and electrophoresis was conducted with 100 volts for 2 hours. Protein was transferred to a nitrocellulose membrane electrophoretically. The nitrocellulose blot was blocked with 5% non-fat dry milk in PBS. […]
Background: In western blotting, separated proteins are transferred to a membrane and probed.

A further experiment has as its system RMG2. The experiment is described as follows: MTT assay RMG2. The note with it: Homo sapiens; RMG2, Clear cell. Format: cell-based. The method, then: as §1
A further experiment has as its system ovarian cancer cells. Description: MTT assay, growth of ovarian cancer cells (FIG. 3A, 3B). Format: cell-based. The note with it: Homo sapiens, read-out: IC50, inhibiting growth of ovarian cancer cells. Here is the method:
as §2
MTT Assay. The procedure for MTT assay followed the method described by Carmichael et al. (1987) with modifications. […] The formazan (product of the reduction of tetrazolium by viable cells) formed and was dissolved with DMSO and the O.D. at 490 nm, and was measured by an ELISA reader. The MTT level of the cells before drug-treatment was also measured (T0). The % cell-growth (% G) is calculated as: % G=(TD−T0/TC−T0)×100(1), where TC or TD represents O.D. readings of control or drug-treated cells. When T0>TD, then the cytotoxicity (LC) expressed as % of the control is calculated as: % LC=(TD−T0/T0)×100(2).

Experiment [3] concerns Fibronectin cellular content in ES2 cells. Description: Cellular contents of Fibronectin and beta-actin (Western blot). It is filed as cell-based, human. The note with it: 24 hours. The method, then: Cells: ES2 (human ovarian carcinoma cells) were grew in RPMI 1640 medium. 1.5 million cells were seeded in a T25 flask and grown for 24 hours before drug-treatment. Drug-treatment: Cells cultures were replaced with fresh RPMI medium containing either 2.5 ul of DMSO (as control) [D]; or 10 ug/ml (final concentration) of Xanifolia-Y3 [Y]. After 24 hours, aliquot of culture medium was taken out for Fibronectin determination (Western blot method). The attached cells were suspended in 1 ml of SDS sample buffer (cell-extract).
Western Blot: Spent culture medium (0.6 ml) was mixed with SDS sample buffer (0.2 ml), and the cell-extract was boiled for 3 minutes before loading to SDS gel. Samples (80 ul/lane) were applied to a 6%-10% SDS gel and electrophoresis was conducted with 100 volts for 2 hours. Protein was transferred to a nitrocellulose membrane electrophoretically (30 min at 100 volts). The nitrocellulose blot was blocked with 5% non-fat dry milk in PBS (1-2 hours). The blot was then incubated with the first antibodies (mouse anti-FN, specific to human FN, SIGMA F0916 and mouse anti-beta actin, SIGMA A5316) and second antibody (Anti-mouse IgG AP conjugated, Promega S3721). The immuno-bands were developed with BCIP/NBT color development system (Promega S3771). Determination of Western band intensity: The band-images of Western blot were captured with a digital camera (3-5 pictures were taken per gel) and the intensity of bands was determined using “Image J” software.
FN concentrations were normalized with the cellular beta-Actin concentrations. Fibronectin secreted into medium and inside Y-treated cells were determined and compare to controls (DMSO-treated cells).

In brackets after ≈: the same amount, converted by molar mass.

Turning to `C/C=C(/C)C(=O)O[C@H]1[C@H](OC(=O)/C(C)=C\C)[C@@]2(CO)C(CC1(C)C)C1=CCC3[C@@]4(C)CC[C@H](O[C@@H]5OC(C(=O)O)[C@@H](O)C(O[C@@H]6O[C@@H](CO)C(O)C6O)C5O[C@@H]5OC(CO)[C@H](O)C(O)C5O)C(C)(C)C4CC[C@@]3(C)[C@]1(C)[C@@H](O)[C@H]2O` (stereo partly drawn) [Xanifolia-Y, 3-O-[β-D-galactopyranosyl (1→2)]-α-L-arabinofuranosy (1→3)-β-D-glucuronopyranosyl-21,22-O-diangeloyl-3β, 15α, 16α, 21β, 22α, 28-hexahydroxyolean-12-ene], the IC50 (usually the midpoint of a concentration-inhibition curve) is 4.4 µM with OVCA 432; 5 µg/mL (≈ 4.38 µM) in experiment [1] (Homo sapiens, (bladder)TB9 cells, read-out: IC50); 8.8 µM in the experiment on RMG2; around 1.5 µg/mL (≈ 1.31 µM) in the experiment on ovarian cancer cells. Further, the “growth of cells compared to the DMSO control (MTT)” value in experiment [1] (HTB-9, 10 ug/ml) was 77%-91%. The “Angiopoietin-2 immuno-band in cell extract” value in experiment [2] is recorded as “No detectable or minimal immuno-band”. Further, the cellular beta-actin content result in experiment [3] (10 ug/ml) is listed as “no change”. Also, the “decrease of Fibronectin cellular content” value in experiment [3] (10 ug/ml) is 70%. Also, the activity at 10 µg/mL in experiment [3] (Homo sapiens, ES-2, 10 ug/ml, read-out: Fibronectin cellular content, % of control) came to 30%.

For the origin of these results see patent US10213451B2, “Methods and compounds for modulating the secretion or expression of adhesion proteins or angiopoietins of cells” (PACIFIC ARROW LIMITED, priority 2004, dated 2019).
